These are literature values, as cited in US6465495B1, “Preparation of pyridone-based phosphotyrosine mimetics and uses thereof” (OSI Pharmaceuticals, Inc., priority 1998, dated 2002).

The structures appear in SMILES notation.

For this data set the following is noted: literature values.

As to `N[C@@H](Cc1ccc(OP(=O)(O)O)cc1)C(=O)O` [pTyr], the pKA2 was 5.7.
